Legend:
hTDO = target: T1, hTDO (Homo sapiens, UniProt P48775); assay: hTDO inhibitory potency evaluation (fluorescence assay); format: biochemical; details: 100 µM compound; n.a. = not active; read-out: TDO % of Inhibition @ 100 µM
T1 construct: purchased Vinci-Biochem
Procedure: (§1) Additionally, to determine IDO1 selectivity, all final compounds were assayed for their inhibitory potencies towards hIDO2 and hTDO. For this purpose, two new protocols were developed based on the published fluorescence assay for hIDO1 [25]. Sodium ascorbate, methylene blue, and bovine catalase were used in the same concentrations as for hIDO1. 50 mM phosphate buffers with pH values of 7.5 and 7.0 were used for hIDO2 and hTDO, respectively, as has been already mentioned before. First, the activities of hIDO2 and hTDO were determined at four different concentrations. […] Additionally, the effect of DMSO concentration on enzyme activity was investigated. […] The optimal hIDO2 and hTDO assay concentrations of the substrate L-Trp were determined to be 4 mM and 500 μM, respectively.
The activity of the compounds on hTDO was determined according to the previously reported fluorescence protocol for hIDO1 [25] and reported absorbance protocols for hTDO [30] with several modifications. Recombinant hTDO was purchased from Vinci-Biochem (Vinci-Biochem, Vinci, Italy), bovine catalase was purchased from Sigma-Aldrich (Sigma-Aldrich, St. Louis, MO, USA). Prior to the measurement of activity for compounds, the enzyme activity was determined, and optimal assay enzyme concentration was selected. The amounts of reagents needed to perform the assay were optimized. Briefly, the reagents needed were dissolved in 50 mM potassium phosphate buffer (pH 7.0, 0.01%, v/v Tween 20), the reaction was performed in black 384-well microplates. After the addition of 1 μL of 100 mM sodium ascorbate neutralized with equimolar amount of 1 M NaOH, 1 μL of 100 μM methylene blue, 1 μL of 1 mg/mL bovine catalase, 0.5 μL of DMSO (negative control) or solution of a compound, 5 μL of 300 nM hTDO and 1.5 μL of 3.3 mM L-Trp were added and the microplate was incubated for 60 min at 37 °C. The reaction was quenched with the addition of 10 μL of 400 mM piperidine solution in MilliQ water and the formation of the examined fluorophore began following incubation at 65 °C for 20 min. The production of NFK-derived fluorophore (λEX = 400 nm, λEM = 500 nm) was measured using a microplate reader (Synergy H4; BioTek Instruments, Inc., Winooski, VT, USA) after 60 min post-incubation at room temperature. In the preliminary testing compounds were tested at 100 μM with activities determined as residual activities—RA, which were calculated to% of inhibition, presented in Table 1 and Table 2 (% of inhibition = 100% − RA). All determinations were carried out in duplicates.

Hep G2 cell line = assay: Cytotoxicity, MTS cell proliferation assay; format: cell-based; details: Hep G2 cells, 10 μM, 24 h
Procedure: All active compounds were additionally evaluated on a cellular level, starting with the determination of cytotoxicity on Hep G2 cell line using the MTS assay (Figure 3), where inner salt of [3-(4,5-dimethylthiazol-2-yl)-5-(3-carboxymethoxyphenyl)-2-(4-sulfophenyl)-2H-tetrazolium is converted to formazan product, its quantity is directly proportional to the number of living cells. Since the majority of compounds were only partially soluble in a cell medium at concentrations above 100 μM, their effect on cell viability was measured at 50 μM, 10 μM, and 1 μM. […] Taken together, the results obtained from cellular tests reminded us of the necessity to consider the physicochemical properties of compounds even at the early stages of design.
Cytotoxicity of the compounds was determined on HepG2 cell line using the MTS cell proliferation assay (CellTiter 96 AQueous One Solution Cell Proliferation Assay, Promega, Madison, WI, USA). The cells were seeded in 96-well plates (3 × 10^4 cells/well) and maintained in Dulbecco’s Modified Eagle’s Medium, supplemented with 10% fetal bovine serum (both from Thermo Fisher Scientific, Waltham, MA, USA) and 100 µg/mL gentamicin (Sigma-Aldrich, St. Louis, MO, USA). Following overnight incubation in a humidified chamber at 37 °C and 5% CO2 cells were treated with the compounds of interest at final concentrations of 1 µM, 10 µM, 50 µM, 100 µM, 150 µM, and 200 µM. After 24h incubation under the same conditions, 100 µL of the medium from each well were collected and mixed with 10 µL of MTS solution. Following 3h incubation, the absorbance (λABS = 490 nm) was measured using a microplate reader (Synergy H4; BioTek Instruments, Inc., Winooski, VT, USA). The results are expressed as means of triplicates ± standard deviation of three independent experiments.

IDO1 = IDO1 (Homo sapiens, UniProt P14902); assay: hIDO1 inhibitory potency evaluation (fluorescence assay, NFK-derived fluorophore); format: biochemical; design: gene encoding human IDO1 residues 6-403 His-tagged at the N-terminus; His tag (N); made in house; host or cells: Escherichia coli NiCo21; details: for IC50: recombinant hIDO1, mean ± SD of at least two independent determinations, read-out: IDO1 IC50
hIDO2 = target: T2, hIDO2 (Homo sapiens, UniProt Q6ZQW0); assay: hIDO2 inhibitory potency evaluation (fluorescence assay); format: biochemical; details: 100 µM compound; n.a. = not active; read-out: IDO2 % of Inhibition @ 100 µM
T2 construct: purchased Vinci-Biochem
T2 sequence (Q6ZQW0 1-407): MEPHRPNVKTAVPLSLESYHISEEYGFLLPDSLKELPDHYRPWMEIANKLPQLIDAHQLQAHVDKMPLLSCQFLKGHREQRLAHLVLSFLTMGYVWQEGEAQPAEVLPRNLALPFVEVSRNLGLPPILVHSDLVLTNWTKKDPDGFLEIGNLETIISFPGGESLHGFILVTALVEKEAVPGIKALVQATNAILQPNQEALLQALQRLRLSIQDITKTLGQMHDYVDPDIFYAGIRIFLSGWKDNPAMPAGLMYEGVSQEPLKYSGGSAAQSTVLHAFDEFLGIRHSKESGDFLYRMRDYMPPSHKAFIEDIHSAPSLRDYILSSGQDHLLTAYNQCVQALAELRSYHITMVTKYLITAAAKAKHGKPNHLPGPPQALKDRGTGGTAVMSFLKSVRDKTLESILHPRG
Procedure: as §1
Activity of the compounds on hIDO2 was determined according to the previously reported fluorescence protocol for hIDO1 [25] and reported absorbance protocols for hIDO2 [30, 36] with several modifications. Recombinant hIDO2 was purchased from Vinci-Biochem (Vinci-Biochem, Srl, Vinci, Italy), bovine catalase was purchased from Sigma-Aldrich (Sigma-Aldrich, St. Louis, MO, USA). Prior to the measurement of activity for compounds, the enzyme activity was determined and optimal assay enzyme concentration was selected. The amounts of reagents needed to perform the assay were optimized. Briefly, the reagents needed were dissolved in 50 mM potassium phosphate buffer (pH 7.5, 0.01%, v/v Tween 20), the reaction was performed in black 384-well microplates. After the addition of 1 μL of 100 mM sodium ascorbate neutralized with an equimolar amount of 1M NaOH, 1 μL of 100 μM methylene blue, 1 μL of 1 mg/mL bovine catalase, 0.5 μL of DMSO (negative control) or solution of a compound in DMSO, 5 μL of […] hIDO2 and 1.5 μL of 26.7 mM L-Trp were added and the microplate was incubated for 60 min at 37 °C. The reaction was quenched with the addition of 10 μL of 400 mM piperidine solution in MilliQ water and the formation of the examined fluorophore began following incubation at 65 °C for 20 min. The production of NFK-derived fluorophore (λEX = 400 nm, λEM = 500 nm) was measured using a microplate reader (Synergy H4; BioTek Instruments, Inc., Winooski, VT, USA) after 60 min post-incubation at room temperature. In the preliminary testing compounds were tested at 100 μM with activities determined as residual activities—RA, which were calculated to% of inhibition, presented in Table 1 and Table 2. (% of inhibition = 100% − RA). All determinations were carried out in duplicates.

Sequence of IDO1 (P14902 6-403): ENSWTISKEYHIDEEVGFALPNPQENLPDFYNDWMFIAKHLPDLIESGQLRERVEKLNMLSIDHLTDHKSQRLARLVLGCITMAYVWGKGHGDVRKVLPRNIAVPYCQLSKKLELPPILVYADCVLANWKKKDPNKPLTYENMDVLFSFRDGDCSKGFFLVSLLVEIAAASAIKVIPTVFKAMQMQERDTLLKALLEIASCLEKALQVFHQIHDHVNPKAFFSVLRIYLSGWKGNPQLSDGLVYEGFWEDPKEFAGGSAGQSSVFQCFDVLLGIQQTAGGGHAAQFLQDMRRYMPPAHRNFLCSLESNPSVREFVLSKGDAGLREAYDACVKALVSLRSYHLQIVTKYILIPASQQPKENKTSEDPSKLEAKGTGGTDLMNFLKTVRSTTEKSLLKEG
T1 sequence (P48775 whole entry): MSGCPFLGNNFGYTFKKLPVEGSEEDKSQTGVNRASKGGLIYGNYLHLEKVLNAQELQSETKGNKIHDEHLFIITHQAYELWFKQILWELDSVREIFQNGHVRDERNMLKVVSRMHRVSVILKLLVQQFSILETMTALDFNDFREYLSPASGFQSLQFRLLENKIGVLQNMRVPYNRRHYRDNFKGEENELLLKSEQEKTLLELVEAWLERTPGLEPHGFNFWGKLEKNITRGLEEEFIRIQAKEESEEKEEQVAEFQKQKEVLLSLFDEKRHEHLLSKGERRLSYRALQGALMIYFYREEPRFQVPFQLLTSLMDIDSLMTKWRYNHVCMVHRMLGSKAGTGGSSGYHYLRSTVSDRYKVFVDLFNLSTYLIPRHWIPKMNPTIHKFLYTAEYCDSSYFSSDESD

With `O=C(Cn1cnc2onc(-c3ccc(F)c(Br)c3)c2c1=O)Nc1ccc([N+](=O)[O-])cc1` [Compound 49] the inhibition at 100 µM (hTDO) was 10 ± 2%, the “effect on cell viability” value (Hep G2 cell line) was “significantly impacted cell viability” and the melting point was 226 to 228 °C. The IC50 (IDO1) was 96 µM.

For `O=C(Cn1cnc2onc(-c3ccc(F)cc3)c2c1=O)Nc1cccc([N+](=O)[O-])c1` [Compound 24], the inhibition at 100 µM (hIDO2) was 39 ± 5%, the inhibition at 100 µM (hTDO) was 25 ± 8% and the melting point was 232 to 235 °C. The inhibition at 100 µM (IDO1; 100 µM compound, n.a. = not active, read-out: IDO1 % of Inhibition @ 100 µM) was 30 ± 2%.

In the case of `O=C(Cn1cnc2onc(-c3ccc(F)cc3)c2c1=O)Nc1ccc([N+](=O)[O-])cc1` [Compound 25], the inhibition at 100 µM (hIDO2) is reported as 28%, the inhibition at 100 µM (hTDO) is reported as 24 ± 7% and the melting point is reported as 200 to 203 °C. It also gave an IC50 (IDO1) of 98 µM.

In the case of `COC(=O)c1ccc(NC(=O)Cn2cnc3onc(-c4ccccc4)c3c2=O)cc1` [Compound 39], the inhibition at 100 µM (hIDO2) is reported as 11 ± 7%, the “effect on cell viability” value (Hep G2 cell line) is reported as “significantly impacted cell viability” and the melting point is reported as 200 to 202 °C. The “hIDO1 inhibition (in words)” value (IDO1) was “low micromolar range” and the IC50 (IDO1) was 22 µM.

From PMC8001472, “Novel Selective IDO1 Inhibitors with Isoxazolo[5,4-d]pyrimidin-4(5H)-one Scaffold” (Pharmaceuticals, 2021)
